Our source for the EC50 values is US20230391760A1, “HETEROCYCLIC GLP-1 AGONISTS” (Gasherbrum Bio, Inc., priority 2020, published 2023).

In the assay the target is GLP-1 Receptor (Homo sapiens, UniProt P43220). Put plainly: GLP-1R agonist cAMP stimulation assay (HEK293/GLP1R/CRE-LUC cells, cAMP dynamic 2 Kit). In kind it is cell-based. Particulars: HEK293/CRE-Luc cell line stably expressing the GLP-1 Receptor, 30 min at 37° C. Put shortly: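 HEK293 cells stably expressing human GLP-1R with CRE-luciferase, 1000 cells/well in DPBS with 0.5 mM IBMX and 0.1% BSA, treated with compound in 1/2-log serial dilution for 30 min at 37 °C. cAMP then detected by HTRF (cAMP-d2 plus anti-cAMP cryptate), 1 h at room temperature in the dark.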
GLP-1 Receptor, sequence (P43220 24-463, species assumed): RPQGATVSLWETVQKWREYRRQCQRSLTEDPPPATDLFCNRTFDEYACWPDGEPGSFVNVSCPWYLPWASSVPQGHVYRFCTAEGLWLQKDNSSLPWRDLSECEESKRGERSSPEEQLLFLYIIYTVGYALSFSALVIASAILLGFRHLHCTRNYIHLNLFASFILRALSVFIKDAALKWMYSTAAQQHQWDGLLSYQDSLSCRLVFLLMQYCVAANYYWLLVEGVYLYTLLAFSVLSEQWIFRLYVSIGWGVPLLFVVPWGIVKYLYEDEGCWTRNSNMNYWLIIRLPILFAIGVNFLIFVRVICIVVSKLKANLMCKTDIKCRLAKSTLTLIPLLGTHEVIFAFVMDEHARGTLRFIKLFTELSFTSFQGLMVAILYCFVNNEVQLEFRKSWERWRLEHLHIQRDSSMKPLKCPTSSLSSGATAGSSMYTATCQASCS

As to `Fc1cc(Cl)ccc1COc1nc(C2CCN(Cc3nc4cc(-c5nnc(C(F)(F)F)[nH]5)nnc4n3C[C@@H]3CCO3)CC2)ccc1F` [Compound 488a, 2-[(4-chloro-2-fluorophenyl)methoxy]-3-fluoro-6-{1-[(7-{[(2S)-oxetan-2-yl]methyl}-3-[5-(trifluoromethyl)-4H-1,2,4-triazol-3-yl]-7H-imidazo[4,5-c]pyridazin-6-yl)methyl]piperidin-4-yl}pyridine], the EC50 worked out at 54 pM. The figure for `O=C(Nc1ccc2c(c1)nc(CN1CCC(c3cccc(OCc4ccc(Cl)cc4F)n3)CC1)n2C[C@@H]1CCO1)c1cccnc1` [Compound 168a, N-{2-[(4-{6-[(4-chloro-2-fluorophenyl)methoxy]pyridin-2-yl}piperidin-1-yl)methyl]-1-{[(2S)-oxetan-2-yl]methyl}-1H-1,3-benzodiazol-5-yl}pyridine-3-carboxamide] is 58 pM; for `Cc1ccc(C(=O)Nc2ccc3c(c2)nc(CN2CCC(c4cccc(OCc5ccc(Cl)cc5F)n4)CC2)n3C[C@@H]2CCO2)cn1` [Compound 173a, N-{2-[(4-{6-[(4-chloro-2-fluorophenyl)methoxy]pyridin-2-yl}piperidin-1-yl)methyl]-1-{[(2S)-oxetan-2-yl]methyl}-1H-1,3-benzodiazol-5-yl}-6-methylpyridine-3-carboxamide] it is 260 pM.

With `C[C@]1(c2ccc(Cl)cc2F)Oc2cccc(C3CCN(Cc4nc5cc(-c6noc(=O)[nH]6)ncc5n4C[C@@H]4CCO4)CC3)c2O1` [Compound 375a, 3-[2-({4-[(2S)-2-(4-chloro-2-fluorophenyl)-2-methyl-2H-1,3-benzodioxol-4-yl]piperidin-1-yl}methyl)-3-{[(2S)-oxetan-2-yl]methyl}-3H-imidazo[4,5-c]pyridin-6-yl]-4,5-dihydro-1,2,4-oxadiazol-5-one], a half-maximal response (EC50) required 6.3 pM.

On to `C[C@]1(c2ccc(Cl)cc2F)Oc2cccc(C3CCN(Cc4nc5cc(-c6nnn[nH]6)ncc5n4C[C@@H]4CCO4)CC3)c2O1` [Compound 417a, 4-[(2S)-2-(4-chloro-2-fluorophenyl)-2-methyl-2H-1,3-benzodioxol-4-yl]-1-[(3-{[(2S)-oxetan-2-yl]methyl}-6-(1H-1,2,3,4-tetrazol-5-yl)-3H-imidazo[4,5-c]pyridin-2-yl)methyl]piperidine], for which the half-maximal effective concentration (EC50) is 6.5 pM. Under `O=C(Nc1ccc2c(c1)nc(CN1CCC(c3cccc(OCc4ccc(Cl)cc4F)n3)CC1)n2C[C@@H]1CCO1)c1cncnc1` [Compound 200a, N-{2-[(4-{6-[(4-chloro-2-fluorophenyl)methoxy]pyridin-2-yl}piperidin-1-yl)methyl]-1-{[(2S)-oxetan-2-yl]methyl}-1H-1,3-benzodiazol-5-yl}pyrimidine-5-carboxamide] stands 350 pM; under `O=C(Nc1ccc2c(c1)nc(CN1CCC(c3cccc(OCc4ccc(Cl)cc4F)n3)CC1)n2C[C@@H]1CCO1)C1CCC2(CCC2)CO1` (stereo partly drawn) [Compound 197a, N-{2-[(4-{6-[(4-chloro-2-fluorophenyl)methoxy]pyridin-2-yl}piperidin-1-yl)methyl]-1-{[(2S)-oxetan-2-yl]methyl}-1H-1,3-benzodiazol-5-yl}-6-oxaspiro[3.5]nonane-7-carboxamide], 4300 pM; under `O=c1[nH]c(-c2cc3nc(CN4CCC(c5cccc(OCc6ccc(Cl)cc6F)n5)CC4)n(C[C@@H]4CCO4)c3cn2)no1` [Compound 316a, 3-{2-[(4-{6-[(4-chloro-2-fluorophenyl)methoxy]pyridin-2-yl}piperidin-1-yl)methyl]-3-{[(2S)-oxetan-2-yl]methyl}-3H-imidazo[4,5-c]pyridin-6-yl}-4,5-dihydro-1,2,4-oxadiazol-5-one], 37 pM. The figure for `CNc1c(Nc2ccc3c(c2)nc(CN2CCC(c4cccc(OCc5ccc(Cl)cc5F)n4)CC2)n3C[C@@H]2CCO2)c(=O)c1=O` [Compound 208a, 3-({2-[(4-{6-[(4-chloro-2-fluorophenyl)methoxy]pyridin-2-yl}piperidin-1-yl)methyl]-1-{[(2S)-oxetan-2-yl]methyl}-1H-1,3-benzodiazol-5-yl}amino)-4-(methylamino)cyclobut-3-ene-1,2-dione] is 1800 pM; for `O=C(Nc1ccc2c(c1)nc(CN1CCC(c3cccc(OCc4ccc(Cl)cc4F)n3)CC1)n2C[C@@H]1CCO1)C1COCCO1` (stereo partly drawn) [Compound 172a, N-{2-[(4-{6-[(4-chloro-2-fluorophenyl)methoxy]pyridin-2-yl}piperidin-1-yl)methyl]-1-{[(2S)-oxetan-2-yl]methyl}-1H-1,3-benzodiazol-5-yl}-1,4-dioxane-2-carboxamide] it is 310 pM; for `Fc1cc(Cl)ccc1COc1cc(C2CCN(Cc3nc4cc(-c5nnc(C(F)(F)F)[nH]5)ncc4n3C[C@@H]3CCO3)CC2)ccc1F` [Compound 470a, 4-{3-[(4-chloro-2-fluorophenyl)methoxy]-4-fluorophenyl}-1-[(3-{[(2S)-oxetan-2-yl]methyl}-6-[5-(trifluoromethyl)-4H-1,2,4-triazol-3-yl]-3H-imidazo[4,5-c]pyridin-2-yl)methyl]piperidine] it is 220 pM. `Cc1cn(-c2ccc3c(c2)nc(CN2CCC(c4cccc(OCc5ccc(Cl)cc5F)n4)CC2)n3C[C@@H]2CCO2)nn1` [Compound 210a, 2-[(4-{6-[(4-chloro-2-fluorophenyl)methoxy]pyridin-2-yl}piperidin-1-yl)methyl]-5-(4-methyl-1H-1,2,3-triazol-1-yl)-1-{[(2S)-oxetan-2-yl]methyl}-1H-1,3-benzodiazole] displayed a 50% effective concentration (EC50) of 4200 pM.

In the case of `CC1(c2ccc(Cl)cc2F)Oc2cccc(C3CCN(Cc4nc5cc(-c6nnc(C(F)(F)F)[nH]6)ccc5n4C[C@@H]4CCO4)CC3)c2O1` (mixture of isomers) [Compound 229a, 2-({4-[2-(4-chloro-2-fluorophenyl)-2-methyl-2H-1,3-benzodioxol-4-yl]piperidin-1-yl}methyl)-1-{[(2S)-oxetan-2-yl]methyl}-5-[5-(trifluoromethyl)-4H-1,2,4-triazol-3-yl]-1H-1,3-benzodiazole], the EC50 was determined as 46 pM. Molecule `Fc1cc(Cl)ccc1COc1cccc(N2CCN(Cc3nc4cc(-c5nnc(C(F)(F)F)[nH]5)cnc4n3C[C@@H]3CCO3)CC2)n1` [Compound 494a, 1-{6-[(4-chloro-2-fluorophenyl)methoxy]pyridin-2-yl}-4-[(3-{[(2S)-oxetan-2-yl]methyl}-6-[5-(trifluoromethyl)-4H-1,2,4-triazol-3-yl]-3H-imidazo[4,5-b]pyridin-2-yl)methyl]piperazine] showed a concentration giving a half-maximal response (EC50) of 13 pM.

Take `Fc1cc(Cl)ccc1COc1ccc(F)c(N2CCN(Cc3nc4cc(-c5nnc(C(F)(F)F)[nH]5)cnc4n3C[C@@H]3CCO3)CC2)n1` [Compound 513a, 1-{6-[(4-chloro-2-fluorophenyl)methoxy]-3-fluoropyridin-2-yl}-4-[(3-{[(2S)-oxetan-2-yl]methyl}-6-[5-(trifluoromethyl)-4H-1,2,4-triazol-3-yl]-3H-imidazo[4,5-b]pyridin-2-yl)methyl]piperazine]: the EC50 is 64 pM.

The molecule `CC1(c2ccc(C#N)cc2F)Oc2cccc(C3CCN(Cc4nc5cc(-c6noc(=O)[nH]6)ncc5n4C[C@@H]4CCO4)CC3)c2O1` (stereo partly drawn) [Compound 341a, 3-fluoro-4-(2-methyl-4-{1-[(3-{[(2S)-oxetan-2-yl]methyl}-6-(5-oxo-4,5-dihydro-1,2,4-oxadiazol-3-yl)-3H-imidazo[4,5-c]pyridin-2-yl)methyl]piperidin-4-yl}-2H-1,3-benzodioxol-2-yl)benzonitrile] showed a 50% effective concentration (EC50) of 26 pM. Take `N#Cc1ccc(COc2cc(C3CCN(Cc4nc5cc(-c6nnc(C(F)(F)F)[nH]6)ncc5n4C[C@@H]4CCO4)CC3)ccc2F)c(F)c1` [Compound 471a, 3-fluoro-4-[(2-fluoro-5-{1-[(3-{[(2S)-oxetan-2-yl]methyl}-6-[5-(trifluoromethyl)-4H-1,2,4-triazol-3-yl]-3H-imidazo[4,5-c]pyridin-2-yl)methyl]piperidin-4-yl}phenoxy)methyl]benzonitrile]: a half-maximal response (EC50) required 110 pM.

`COc1ccc(C(=O)Nc2ccc3c(c2)nc(CN2CCC(c4cccc(OCc5ccc(Cl)cc5F)n4)CC2)n3C[C@@H]2CCO2)cn1` [Compound 175a, N-{2-[(4-{6-[(4-chloro-2-fluorophenyl)methoxy]pyridin-2-yl}piperidin-1-yl)methyl]-1-{[(2S)-oxetan-2-yl]methyl}-1H-1,3-benzodiazol-5-yl}-6-methoxypyridine-3-carboxamide]: the EC50 was 1500 pM. Under `CO[C@H](C)Cn1c(CN2CCC(c3cccc4c3O[C@@](C)(c3ccc(Cl)cn3)O4)CC2)nc2cc(-c3nnc(C(F)(F)F)[nH]3)nnc21` [Compound 473a, 5-chloro-2-[(2S)-4-[1-({7-[(2R)-2-methoxypropyl]-3-[5-(trifluoromethyl)-4H-1,2,4-triazol-3-yl]-7H-imidazo[4,5-c]pyridazin-6-yl}methyl)piperidin-4-yl]-2-methyl-2H-1,3-benzodioxol-2-yl]pyridine] stands 460 pM; under `CC1(c2ccc(Cl)cc2F)Oc2cccc(C3CCN(Cc4nc5cc(NC(=O)c6cccnc6)ccc5n4C[C@@H]4CCO4)CC3)c2O1` (stereo partly drawn) [Compound 235a, N-(2-((4-(2-(4-chloro-2-fluorophenyl)-2-methylbenzo[d][1,3]dioxol-4-yl)piperidin-1-yl)methyl)-1-(((S)-oxetan-2-yl)methyl)-1H-benzo[d]imidazol-5-yl)nicotinamide], 62 pM. Under `O=C(Nc1ccc2c(c1)nc(CN1CCC(c3cccc(OCc4ccc(Cl)cc4F)n3)CC1)n2C[C@@H]1CCO1)C1CC1` [Compound 103a, (S)—N-(2-((4-(6-((4-chloro-2-fluorobenzyl)oxy)pyridin-2-yl)piperidin-1-yl)methyl)-1-(oxetan-2-ylmethyl)-1H-benzo[d]imidazol-5-yl)cyclopropanecarboxamide] stands 309 pM; under `Cc1cc(C(=O)Nc2ccc3c(c2)nc(CN2CCC(c4cccc(OCc5ccc(Cl)cc5F)n4)CC2)n3C[C@@H]2CCO2)nn1C` [Compound 187a, N-{2-[(4-{6-[(4-chloro-2-fluorophenyl)methoxy]pyridin-2-yl}piperidin-1-yl)methyl]-1-{[(2S)-oxetan-2-yl]methyl}-1H-1,3-benzodiazol-5-yl}-1,5-dimethyl-1H-pyrazole-3-carboxamide], 880 pM.
